# Assay results from article PMC3350394, “Kinetic analysis and test-retest variability of the radioligand [^11C](R)-PK11195 binding to TSPO in the human brain - a PET study in control subjects” (EJNMMI Research, 2012).
# Columns and labels:
# [1] = Radioligand brain exposure (PET); type: in vivo, human
# Protocol: To calculate the percentage of [^11C](R)-PK11195 injected that was present in the brain at the time of maximal radioactivity, the radioactivity concentration in the ROI for the whole brain was multiplied by the estimated average brain volume (1,250 mL), divided by the radioactivity injected and multiplied by 100 to obtain the percentage of injected radioactivity.
# Average radioactivity for the ROI was calculated by pooling the data from the series of brain sections. The radioactivity concentration for each sequential time frame was corrected for the physical decay of carbon-11 and used to obtain the regional time-radioactivity curves (TACs; in kiloBecquerels per cubic centimetre).
# [2] = test system: TSPO; design: method as in PMID 1782994; conditions: grey matter; baboons; indirect quantitative approach; cited from earlier work
# [3] = target: TSPO (Homo sapiens, UniProt P30536); assay: PET, linear graphical analysis (Logan) distribution volume; type: in vivo; design: from tissue; host or cells: living human brain (in vivo PET in six control subjects); conditions: for Error % mean(SD) / Error range (%): VT Logan test-retest; for VT Logan: mean(SD)
# Sequence of TSPO (Homo sapiens, UniProt P30536) (P30536 whole entry): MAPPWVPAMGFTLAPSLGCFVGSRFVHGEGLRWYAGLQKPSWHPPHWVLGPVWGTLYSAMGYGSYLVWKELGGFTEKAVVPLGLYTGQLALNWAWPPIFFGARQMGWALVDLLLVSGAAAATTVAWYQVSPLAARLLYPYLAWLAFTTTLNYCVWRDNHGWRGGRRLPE
# Protocol: The [^11C](R)-PK11195 distribution volume was also quantified using a linear graphical analysis for reversible ligand binding. The regional distribution volumes were determined from the slope of the linear plots obtained from 8 to 60 min after intravenous (i.v.) injection using the radioactivity of unchanged [^11C](R)-PK11195 in arterial plasma as an input function.
# [4] = test system: ABCC1; design: method as in PMID 19948230; conditions: cited from earlier work
# [5] = design: method as in PMID 19050880, PMID 16039131; conditions: cited from earlier work
# [6] = Plasma metabolite analysis using HPLC; type: in vivo, human
# Source text: The method for the determination of the fraction of radioactivity corresponding to unchanged [^11C](R)-PK11195 and labelled metabolites during the time of a PET measurement was a modification of a high-performance liquid chromatography (HPLC) method developed for other PET radioligands. […] The HPLC system used consisted of a Merck-Hitachi D-7000 interface module, a Merck-Hitachi L-7100 pump and a Rheodyne injector (7125 with a 5.0-mL loop) (VWR International, Stockholm, Sweden) equipped with a Waters/-Bondapack-C18 column (300 mm × 7.8 mm, 10-μm particle size; Waters, Milford, MA, USA) and a Merck-Hitachi L-7400 absorbance detector (254 nm) in series with a Packard Radiomatic 150TR radiometric detector (Packard BioScience, Meriden, CT, USA) equipped with a PET flow cell (600-μL cell). The HPLC methods used were acetonitrile (A) and phosphoric acid (0.01 M) (B) as mobile phase at 6.0 mL/min. […] The radioactive peak having a retention time corresponding to [^11C](R)-PK11195 was integrated, and its area was expressed as a percentage of the sum of the areas of all detected radioactive peaks.
# [7] = at peak, approximately 1 min after i.v. injection, n = 6
# [8] = by the end of PET measurement time
compound,measurement,setting,value
CC[C@@H](C)N([11CH3])C(=O)c1cc2ccccc2c(-c2ccccc2Cl)n1 [[^11C](R)-PK11195],radioactivity injected (ID%) present in the brain,[1]; [7],about 2.5%
same,"radioactivity injected (ID%) present in the brain, range",[1]; [7],1.9% to 3.2
same,time of peak of total brain radioactivity after injection,[1]; intravenous injection,approximately 1 min
same,mean ID% in the brain,[1]; measurement time from 20 to 60 min,1.5% to 1.3
same,fraction of non-specifically bound radioligand,[2],about 60%
same,Error % mean(SD),[3]; brainstem,-8(12) %
same,Error range (%),[3]; brainstem,-24 to 12%
same,VT Logan,"[3]; brainstem, retest",0.67(0.19)
same,VT Logan,"[3]; brainstem, test",0.74(0.21)
same,Error % mean(SD),[3]; caudate,-5(23) %
same,Error range (%),[3]; caudate,-37 to 25%
same,VT Logan,"[3]; caudate, retest",0.59(0.19)
same,VT Logan,"[3]; caudate, test",0.64(0.16)
same,Error % mean(SD),[3]; cerebellum,-4(18) %
same,Error range (%),[3]; cerebellum,-29 to 20%
same,VT Logan,"[3]; cerebellum, retest",0.68(0.18)
same,VT Logan,"[3]; cerebellum, test",0.72(0.18)
same,Error % mean(SD),[3]; grey matter,-4(16) %
same,Error range (%),[3]; grey matter,-28 to 17%
same,VT Logan,"[3]; grey matter, retest",0.65(0.18)
same,VT Logan,"[3]; grey matter, test",0.69(0.17)
same,Error % mean(SD),[3]; putamen,3(25) %
same,Error range (%),[3]; putamen,-25 to 42%
same,VT Logan,"[3]; putamen, retest",0.73(0.26)
same,VT Logan,"[3]; putamen, test",0.70(0.15)
same,Error % mean(SD),[3]; thalamus,-3(20) %
same,Error range (%),[3]; thalamus,-26 to 27%
same,VT Logan,"[3]; thalamus, retest",0.76(0.25)
same,VT Logan,"[3]; thalamus, test",0.80(0.24)
same,Error % mean(SD),[3]; white matter,-4(19) %
same,Error range (%),[3]; white matter,-32 to 19%
same,VT Logan,"[3]; white matter, retest",0.65(0.20)
same,VT Logan,"[3]; white matter, test",0.69(0.18)
same,Error % mean(SD),[3]; whole brain,-4(16) %
same,Error range (%),[3]; whole brain,-29 to 17%
same,VT Logan,"[3]; whole brain, retest",0.65(0.19)
same,VT Logan,"[3]; whole brain, test",0.69(0.17)
same,substrate for ABC transporter,[4],not a substrate
same,log P,[5],1.4 to 3.4
same,polarity of radioactive metabolites in plasma,[6]; HPLC,more polar than the parent compound
same,unchanged fraction in plasma,[6]; [8],70 ± 1.5%
same,"unchanged fraction in plasma, range",[6]; [8],60% to 77
same,metabolism,[6]; human plasma,not extensive
